In US7211576B2, “Diaminothiazoles” (Hoffmann-La Roche Inc., priority 2004, dated 2007) one finds IC50 data, which are given here for 15 molecules.

Type in all cases: biochemical
One assay concerns the target human cyclin D1-CDK4 (Homo sapiens, UniProt P11802). The assay is described as follows: FlashPlate kinase assay, cyclin D1-CDK4. The conditions noted are these: Rb protein substrate, 1 μM ATP, 33P-ATP, 30 minutes room temperature; read-out: CDK4 IC50. Here is the method: To determine inhibition of Cdk4, Cdk2 and Cdk1 activity, kinase assays were conducted using FlashPlate™ assays (NEN™-Life Science Products). FlashPlate assays were performed using recombinant human cyclin B-CDK1, human cyclin E-CDK2 or human cyclin D1-CDK4 complexes. GST-cyclinE (GST-cycE), CDK2, GST-cyclinB (GST-cycB), CDK1, GST-CDK4 and cyclin D1 (cycD1) cDNA clones in baculovirus vectors were provided by Dr. W. Harper at the Baylor College of Medicine, Houston, Tex.
(§1) The expression of the 62Kd protein was under the control of an IPTG inducible promoter in an M15 E. coli strain. Cells were lysed by sonication and purification was carried out by binding lysates at pH 8.0 to a Ni-chelated agarose column pretreated with 1 mM imidazole. The resin was then washed several times with incrementally decreasing pH buffers to pH 6.0, and eluted with 500 mM imidazole. Eluted protein was dialysed against 20 mM HEPES pH 7.5, 30% glycerol, 200 mM NaCl, and 1 mM DTT. Purified Rb fusion protein stocks were quantitated for protein concentration, aliquoted, and stored at −70° C.
(§2) For all three kinase assays reported herein, 96-well FlashPlates were coated with Rb protein at 10 μg/ml, using 100 μl per well. Plates were incubated at 4° C. overnight or at room temperature for 3 hours on a shaker. To control for nonspecific phosphorylation, one row of wells was coated with 100 μl/well coating buffer (20 mM HEPES, 0.2 M NaCl). Plates were then washed twice with wash buffer (0.01% Tween 20 in phosphate-buffered saline). Compounds to be tested (“test compounds”) were added to the wells at 5× final concentration. Reactions were initiated by immediate addition of 40 μl reaction mix (25 mM HEPES, 20 mM MgCl2, 0.002% Tween 20, 2 mM DTT, 1 μM ATP, 4 nM ^33P-ATP) and a sufficient amount of enzyme to give counts that were at least 10-fold above background. Plates were incubated at room temperature on a shaker for 30 minutes. Plates were washed four times with the wash buffer, sealed, and counted on the TopCount scintillation counter (Packard Instrument Co., Downers Grove, Ill.]. The percent inhibition of Rb phosphorylation, which is a measure of the inhibition of CDK activity, was determined according to the following formula:
[formula] where “test compound” refers to the average counts per minute of the test duplicates, “nonspecific” refers to the average counts per minute when no CyclinD/Cdk4, etc., was added, and “total” refers to the average counts per minute when no compound was added.

The target in a further assay is human cyclin B-CDK1 (Homo sapiens, UniProt P06493). The assay is described as follows: FlashPlate kinase assay, cyclin B-CDK1. The following applies: Rb protein substrate, 1 μM ATP, 33P-ATP, 30 minutes room temperature. Here is the method:
(§3) To determine inhibition of Cdk4, Cdk2 and Cdk1 activity, kinase assays were conducted using FlashPlate™ assays (NEN™-Life Science Products). FlashPlate assays were performed using recombinant human cyclin B-CDK1, human cyclin E-CDK2 or human cyclin D1-CDK4 complexes. GST-cyclinE (GST-cycE), CDK2, GST-cyclinB (GST-cycB), CDK1, GST-CDK4 and cyclin D1 (cycD1) cDNA clones in baculovirus vectors were provided by Dr. W. Harper at the Baylor College of Medicine, Houston, Tex. Proteins were co-expressed in High Five™ insect cells and the complex was purified on glutathione Sepharose resin (Pharmacia, Piscataway, N.J.) as previously described (Harper, J. W. et al. Cell 1993, 75, 805–816). A 6×-Histidine tagged truncated form of retinoblastoma (Rb) protein (amino acid 386–928) was used as the substrate for the cycD1-CDK4, cycB-CDK1 and the cycE-CDK2 assays (the expression plasmid was provided by Dr. Veronica Sullivan, Department of Molecular Virology, Roche Research Centre, Welwyn Garden City, United Kingdom). The Rb protein is a natural substrate for phosphorylation by CDK4, CDK2 and CDK1 (see Herwig and Strauss Eur. J. Biochem. Vol. 246 (1997) pp. 581–601 and the references cited therein).
as §1, §2
(§4) [formula] where “test compound” refers to the average counts per minute of the test duplicates, “nonspecific” refers to the average counts per minute when no CyclinD/Cdk4, etc., was added, and “total” refers to the average counts per minute when no compound was added. The IC50 value is the concentration of test compound that reduces by 50% the protein-kinase induced incorporation of the radiolabel under the test conditions described.

The target in a further assay is human cyclin E-CDK2 (Homo sapiens, UniProt P24941). The assay is described as follows: FlashPlate kinase assay, cyclin E-CDK2. The conditions noted are these: Rb protein substrate, 1 μM ATP, 33P-ATP, 30 minutes room temperature. Here is the method:
as §3, §1, §2, §4

human cyclin D1-CDK4, sequence (P11802 whole entry): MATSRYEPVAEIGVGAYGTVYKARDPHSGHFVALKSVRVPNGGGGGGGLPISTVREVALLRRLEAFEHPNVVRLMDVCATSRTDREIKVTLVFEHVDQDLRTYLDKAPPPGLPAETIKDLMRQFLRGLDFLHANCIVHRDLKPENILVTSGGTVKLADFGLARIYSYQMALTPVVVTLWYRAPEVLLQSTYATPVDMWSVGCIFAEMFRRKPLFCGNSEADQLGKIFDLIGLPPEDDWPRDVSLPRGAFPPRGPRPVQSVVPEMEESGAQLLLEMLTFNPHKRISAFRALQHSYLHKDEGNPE
human cyclin D1-CDK4, sequence (P24385 whole entry partner): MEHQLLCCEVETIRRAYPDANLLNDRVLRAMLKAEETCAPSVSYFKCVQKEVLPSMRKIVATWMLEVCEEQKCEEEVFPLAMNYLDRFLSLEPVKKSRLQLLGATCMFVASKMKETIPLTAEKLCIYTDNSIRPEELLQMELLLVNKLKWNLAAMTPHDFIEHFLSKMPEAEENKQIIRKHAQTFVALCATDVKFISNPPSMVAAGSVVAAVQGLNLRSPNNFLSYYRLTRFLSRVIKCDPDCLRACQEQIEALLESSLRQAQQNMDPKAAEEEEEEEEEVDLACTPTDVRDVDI
human cyclin B-CDK1, sequence (P06493 whole entry): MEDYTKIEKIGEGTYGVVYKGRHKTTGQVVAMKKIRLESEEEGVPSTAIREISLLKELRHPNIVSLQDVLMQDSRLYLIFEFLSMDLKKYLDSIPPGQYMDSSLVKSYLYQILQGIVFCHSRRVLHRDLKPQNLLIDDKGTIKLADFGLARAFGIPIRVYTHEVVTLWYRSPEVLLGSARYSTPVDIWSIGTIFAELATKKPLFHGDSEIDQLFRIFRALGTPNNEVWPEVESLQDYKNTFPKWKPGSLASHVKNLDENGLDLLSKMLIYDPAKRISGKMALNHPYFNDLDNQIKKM
human cyclin B-CDK1, sequence (P14635 whole entry partner): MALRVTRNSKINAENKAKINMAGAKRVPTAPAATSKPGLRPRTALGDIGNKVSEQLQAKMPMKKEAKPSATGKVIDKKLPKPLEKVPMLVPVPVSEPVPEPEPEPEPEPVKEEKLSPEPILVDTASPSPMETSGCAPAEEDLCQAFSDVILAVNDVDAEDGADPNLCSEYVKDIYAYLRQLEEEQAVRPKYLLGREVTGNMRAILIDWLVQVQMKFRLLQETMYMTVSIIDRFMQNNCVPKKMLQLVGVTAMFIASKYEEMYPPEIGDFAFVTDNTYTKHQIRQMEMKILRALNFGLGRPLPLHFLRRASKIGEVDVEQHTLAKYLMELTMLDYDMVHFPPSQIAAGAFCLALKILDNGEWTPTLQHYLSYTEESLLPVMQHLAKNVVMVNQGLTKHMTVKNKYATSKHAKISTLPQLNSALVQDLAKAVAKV

Take `Nc1nc(Nc2ccc(N3CCC(N4CCCC(O)C4)CC3)cc2)sc1C(=O)c1ccc(Cl)c([N+](=O)[O-])c1` (stereo not drawn) [Example 78, {4-Amino-2-[4-(3-hydroxy-[1,4′]bipiperidinyl-1′-yl)-phenylamino]-thiazol-5-yl}-(4-chloro-3-nitro-phenyl)-methanone]: the half-maximal inhibitory concentration (IC50) at human cyclin D1-CDK4 stood at 246 nM; at human cyclin B-CDK1, 2900 nM; against human cyclin E-CDK2, 3710 nM.

Turning to `CN(C)C1CCN(c2ccc(Nc3nc(N)c(C(=O)c4cc(F)cc(F)c4)s3)cc2)CC1` [Example 82, {4-Amino-2-[4-(4-dimethylamino-piperidin-1-yl)-phenylamino]-thiazol-5-yl}-(3,5-difluoro-phenyl)-methanone], the IC50 at human cyclin D1-CDK4 was determined as 84 nM; on human cyclin B-CDK1 it was 4270 nM; at human cyclin E-CDK2, 7840 nM.

On to `CN(C)C1CCN(c2ccc(Nc3nc(N)c(C(=O)c4ccc(F)c(F)c4)s3)cc2)CC1` [Example 84, {4-Amino-2-[4-(4-dimethylamino-piperidin-1-yl)-phenylamino]-thiazol-5-yl}-(3,4-difluoro-phenyl)-methanone], for which the IC50 at human cyclin D1-CDK4 is 122 nM; against human cyclin B-CDK1, 3730 nM; against human cyclin E-CDK2, 9510 nM.

Turning to `CN(C)C1CCN(c2ccc(Nc3nc(N)c(C(=O)c4ccc(Cl)c(Cl)c4)s3)cc2)CC1` [Example 85, {4-Amino-2-[4-(4-dimethylamino-piperidin-1-yl)-phenylamino]-thiazol-5-yl}-(3,4-dichloro-phenyl)-methanone], the IC50 was found to be 98 nM on human cyclin D1-CDK4, 510 nM at human cyclin B-CDK1 and 2260 nM against human cyclin E-CDK2.

For the molecule `CN(C)C1CCN(c2ccc(Nc3nc(N)c(C(=O)c4ccc(Cl)c([N+](=O)[O-])c4)s3)cc2)CC1` [Example 87, {4-Amino-2-[4-(4-dimethylamino-piperidin-1-yl)-phenylamino]-thiazol-5-yl}-(4-chloro-3-nitro-phenyl)-methanone], the 50% inhibitory concentration (IC50) was determined as 133 nM at human cyclin D1-CDK4, 2990 nM against human cyclin B-CDK1 and 4440 nM against human cyclin E-CDK2.

As to `CN(C)C1CCN(c2ccc(Nc3nc(N)c(C(=O)c4cccc(C#N)c4)s3)cc2)CC1` [Example 88, 3-{4-Amino-2-[4-(4-dimethylamino-piperidin-1-yl)-phenylamino]-thiazole-5-carbonyl}-benzonitrile], the IC50 at human cyclin D1-CDK4 was 15 nM; against human cyclin B-CDK1, 940 nM; against human cyclin E-CDK2, 3910 nM.

On to `Nc1nc(Nc2ccc(N3CCC(N4CCCCC4)CC3)cc2)sc1C(=O)c1cccc([N+](=O)[O-])c1` [Example 89, [4-Amino-2-(4-[1,4′]bipiperidinyl-1′-yl-phenylamino)-thiazol-5-yl]-(3-nitro-phenyl)-methanone], for which the values for the IC50 on human cyclin D1-CDK4, on human cyclin B-CDK1 and on human cyclin E-CDK2 were 100 nM, 510 nM and 2260 nM, respectively.

For `Nc1nc(Nc2ccc(N3CCC(N4CCCC4)CC3)cc2)sc1C(=O)c1cccc(O)c1` [Example 96, {4-Amino-2-[4-(4-pyrrolidin-1-yl-piperidin-1-yl)-phenylamino]-thiazol-5-yl}-(3-hydroxy-phenyl)-methanone], the half-maximal inhibitory concentration (IC50) on human cyclin D1-CDK4 is 37 nM; on human cyclin B-CDK1 it was 1180 nM; on human cyclin E-CDK2 it was 4060 nM.

For `Nc1nc(Nc2ccc(N3CCC(N4CCOCC4)CC3)cc2)sc1C(=O)c1cccc(F)c1` [Example 99, {4-Amino-2-[4-(4-morpholin-4-yl-piperidin-1-yl)-phenylamino]-thiazol-5-yl}-(3-fluoro-phenyl)-methanone], the figures for the IC50 at human cyclin D1-CDK4, on human cyclin B-CDK1 and at human cyclin E-CDK2 were 35 nM, 450 nM and 550 nM, respectively.

Consider `COc1cccc(C(=O)c2sc(Nc3ccc(N4CCC(N5CCOCC5)CC4)cc3)nc2N)c1` [Example 102, {4-Amino-2-[4-(4-morpholin-4-yl-piperidin-1-yl)-phenylamino]-thiazol-5-yl}-(3-methoxy-phenyl)-methanone], for which the values for the IC50 on human cyclin D1-CDK4, against human cyclin B-CDK1 and against human cyclin E-CDK2 were 29 nM, 1990 nM and 4800 nM, respectively.

In the case of `Nc1nc(Nc2ccc(N3CCC(N4CCOCC4)CC3)cc2)sc1C(=O)c1cccc(O)c1` [Example 103, {4-Amino-2-[4-(4-morpholin-4-yl-piperidin-1-yl)-phenylamino]-thiazol-5-yl}-(3-hydroxy-phenyl)-methanone], the concentration for half-maximal inhibition (IC50) was found to be 36 nM at human cyclin D1-CDK4, 1520 nM on human cyclin B-CDK1 and 3340 nM on human cyclin E-CDK2.

Regarding `N#Cc1cccc(C(=O)c2sc(Nc3ccc(N4CCC(N5CCOCC5)CC4)cc3)nc2N)c1` [Example 104, 3-{4-Amino-2-[4-(4-morpholin-4-yl-piperidin-1-yl)-phenylamino]-thiazole-5-carbonyl}-benzonitrile], the figures for the half-maximal inhibitory concentration (IC50) on human cyclin D1-CDK4, against human cyclin B-CDK1 and against human cyclin E-CDK2 were 31 nM, 1280 nM and 2000 nM, respectively.

Consider `Nc1nc(Nc2ccc(N3CCC(N4CCOCC4)CC3)cc2)sc1C(=O)c1cccc([N+](=O)[O-])c1` [Example 105, {4-Amino-2-[4-(4-morpholin-4-yl-piperidin-1-yl)-phenylamino]-thiazol-5-yl}-(3-nitro-phenyl)-methanone], for which the half-inhibitory concentration (IC50) at human cyclin D1-CDK4 was found to be 39 nM; at human cyclin B-CDK1, 1280 nM; against human cyclin E-CDK2, 1510 nM.

For the molecule `COc1ccc(C(=O)c2sc(Nc3ccc(N4CCC(N5CCOCC5)CC4)cc3)nc2N)cc1[N+](=O)[O-]` [Example 106, {4-Amino-2-[4-(4-morpholin-4-yl-piperidin-1-yl)-phenylamino]-thiazol-5-yl}-(4-methoxy-3-nitro-phenyl)-methanone], the IC50 stood at 52 nM on human cyclin D1-CDK4, 2270 nM against human cyclin B-CDK1 and 4830 nM against human cyclin E-CDK2.

As to `CCOC(=O)c1cc2ccc(C(=O)c3sc(Nc4ccc(N5CCC(N6CCCC6)CC5)cc4)nc3N)cc2[nH]1` [Example 124], the IC50 at human cyclin D1-CDK4 worked out at 67 nM; against human cyclin B-CDK1 it was 11400 nM; on human cyclin E-CDK2, 4320 nM.
